Molecular target: T1, human full-length MKNK1 (Homo sapiens, UniProt Q9BUB5, T385D)
T1 construct: purchased Carna Biosciences 02-145; host or cells: insect cells, baculovirus expression system
Experiment: MKNK1 kinase high ATP assay (TR-FRET)
Assay type: biochemical
Conditions: high ATP (2 mM), 15 min preincubation with enzyme, GST-MKNK1 (T344D)
Outline: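 GST-tagged full-length human MKNK1 (aa 1-424, T344D), baculovirus-expressed, preincubated 15 min with compound, then reacted 30 min at 22 °C with 2 mM ATP and 0.06 µM biotinylated peptide (final).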

T1 sequence (Q9BUB5 1-424 isoform Q9BUB5-2 T344D): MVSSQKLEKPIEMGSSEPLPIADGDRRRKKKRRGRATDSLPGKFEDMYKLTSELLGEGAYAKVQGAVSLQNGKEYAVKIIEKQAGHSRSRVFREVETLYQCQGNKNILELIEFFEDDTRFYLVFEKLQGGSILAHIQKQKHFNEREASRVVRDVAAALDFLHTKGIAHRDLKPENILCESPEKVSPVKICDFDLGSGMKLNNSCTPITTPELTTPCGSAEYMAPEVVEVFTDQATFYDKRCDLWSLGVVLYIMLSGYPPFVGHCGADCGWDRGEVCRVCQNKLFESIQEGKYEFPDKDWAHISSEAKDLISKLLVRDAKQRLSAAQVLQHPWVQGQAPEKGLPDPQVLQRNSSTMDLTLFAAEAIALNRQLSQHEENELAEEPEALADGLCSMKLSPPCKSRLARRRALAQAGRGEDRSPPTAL

SMILES | IC50
COc1cccc(Nc2ncnc3[nH]c4c(c23)CC(C(=O)NCCCS(C)(=O)=O)CC4)c1OC (racemic) [Example 74, (RS)-4-[(2,3-Dimethoxyphenyl)amino]-N-[3-(methylsulfonyl)propyl]-6,7,8,9-tetrahydro-5H-pyrimido[4,5-b]indole-6-carboxamide] | 1160 nM
CS(=O)(=O)CCCNC(=O)C1CCc2[nH]c3ncnc(Nc4ccc5c(c4)CCS5(=O)=O)c3c2C1 (racemic) [Example 52, (RS)-4-[(1,1-Dioxido-2,3-dihydro-1-benzothiophen-5-yl)amino]-N-[3-(methylsulfonyl)propyl]-6,7,8,9-tetrahydro-5H-pyrimido[4,5-b]indole-6-carboxamide] | 904 nM
CS(=O)(=O)CCCNC(=O)C1CCc2[nH]c3ncnc(Nc4cccc(F)c4F)c3c2C1 (racemic) [Example 77, (RS)-4-[(2,3-Difluorophenyl)amino]-N-[3-(methylsulfonyl)propyl]-6,7,8,9-tetrahydro-5H-pyrimido[4,5-b]indole-6-carboxamide] | 3630 nM
Cc1nc2cc(Nc3ncnc4[nH]c5c(c34)CC(C(=O)NCCCS(C)(=O)=O)CC5)ccc2s1 (racemic) [Example 50, (RS)-4-[(2-Methyl-1,3-benzothiazol-5-yl)amino]-N-[3-(methylsulfonyl)propyl]-6,7,8,9-tetrahydro-5H-pyrimido[4,5-b]indole-6-carboxamide] | 6410 nM
O=C(O)CNC(=O)C1CCc2[nH]c3ncnc(Nc4ccc(F)cc4OCCO)c3c2C1 (racemic) [Example 187, (RS)—N-[(4-{[4-Fluoro-2-(2-hydroxyethoxy)phenyl]amino}-6,7,8,9-tetrahydro-5H-pyrimido[4,5-b]indol-6-yl)carbonyl]glycine] | 123 nM
CSc1cc2c(cc1Nc1ncnc3[nH]c4c(c13)CC(C(=O)NCCCS(C)(=O)=O)CC4)OCCO2 (racemic) [Example 65, (RS)-4-{[7-(Methylsulfanyl)-2,3-dihydro-1,4-benzodioxin-6-yl]amino}-N-[3-(methylsulfonyl)propyl]-6,7,8,9-tetrahydro-5H-pyrimido[4,5-b]indole-6-carboxamide] | 13300 nM
O=C(NC1CC1)C1CCc2[nH]c3ncnc(Nc4ccccc4N4CCOCC4)c3c2C1 (racemic) [Example 203, (RS)—N-Cyclopropyl-4-{[2-(morpholin-4-yl)phenyl]amino}-6,7,8,9-tetrahydro-5H-pyrimido[4,5-b]indole-6-carboxamide] | 175 nM
CC(C)Oc1cc(F)ccc1Nc1ncnc2[nH]c3c(c12)CCCCC3 [Example 4, N-(4-Fluoro-2-isopropoxyphenyl)-5,6,7,8,9,10-hexahydrocyclohepta[4,5]pyrrolo[2,3-d]pyrimidin-4-amine] | 258 nM
CCNC(=O)C1CCc2[nH]c3ncnc(Nc4cc(F)ccc4OC)c3c2C1 (racemic) [Example 194, (RS)—N-Ethyl-4-[(5-fluoro-2-methoxyphenyl)amino]-6,7,8,9-tetrahydro-5H-pyrimido[4,5-b]indole-6-carboxamide] | 159 nM
COc1cc(NS(C)(=O)=O)ccc1Nc1ncnc2[nH]c3c(c12)CCCC3 [Example 129] | 4050 nM
O=[N+]([O-])c1ccc2c(c1)N(c1ncnc3[nH]c4c(c13)CCCC4)CC2 [Example 121] | ≥ 20000 nM
COc1cc(Nc2ncnc3[nH]c4c(c23)CC(C(=O)NCCCS(C)(=O)=O)CC4)ccc1F (racemic) [Example 34, (RS)-4-[(4-Fluoro-3-methoxyphenyl)amino]-N-[3-(methylsulfonyl)propyl]-6,7,8,9-tetrahydro-5H-pyrimido[4,5-b]indole-6-carboxamide] | 306 nM
Nc1ccc2c(c1)CCN2c1ncnc2[nH]c3c(c12)CCCC3 [Example 113] | 683 nM
COc1ccc(Br)cc1Nc1ncnc2[nH]c3c(c12)CCCC3 [Example 128] | 313 nM
CC(C)Oc1cc2[nH]ncc2cc1Nc1ncnc2[nH]c3c(c12)CCCC3 [Example 126] | 5 nM
CS(=O)(=O)CCCNC(=O)C1CCc2[nH]c3ncnc(Nc4cccc(-c5cnco5)c4)c3c2C1 (racemic) [Example 55, (RS)—N-[3-(Methylsulfonyl)propyl]-4-{[3-(1,3-oxazol-5-yl)phenyl]amino}-6,7,8,9-tetrahydro-5H-pyrimido[4,5-b]indole-6-carboxamide] | 511 nM
CS(=O)(=O)CCCNC(=O)C1CCc2[nH]c3ncnc(Nc4ccc(Cl)c(Cl)c4)c3c2C1 (racemic) [Example 166, (RS)-4-[(3,4-Dichlorophenyl)amino]-N-[3-(methylsulfonyl)propyl]-6,7,8,9-tetrahydro-5H-pyrimido[4,5-b]indole-6-carboxamide] | 45 nM
CNS(=O)(=O)c1ccc(Nc2ncnc3[nH]c4c(c23)CC(C(=O)NCCCS(C)(=O)=O)CC4)cc1 (racemic) [Example 41, (RS)-4-{[4-(Methylsulfamoyl)phenyl]amino}-N-[3-(methylsulfonyl)propyl]-6,7,8,9-tetrahydro-5H-pyrimido[4,5-b]indole-6-carboxamide] | 9330 nM

SMILES | IC50
CCOC(=O)C1CCc2[nH]c3ncnc(Nc4ccc(Cl)c(Cl)c4)c3c2C1 (racemic) [Example 178, (RS)-Ethyl 4-[(3,4-dichlorophenyl)amino]-6,7,8,9-tetrahydro-5H-pyrimido[4,5-b]indole-6-carboxylate] | 215 nM
Nc1ccc2c(c1)N(c1ncnc3[nH]c4c(c13)CCCC4)CC2 [Example 111] | 1100 nM
COc1ccc(C(F)(F)F)cc1Nc1ncnc2[nH]c3c(c12)CC(F)(F)CC3 [Example 145] | ≥ 20000 nM
CC(=O)c1ccc(Nc2ncnc3[nH]c4c(c23)CC(C(=O)NCCCS(C)(=O)=O)CC4)cc1 (racemic) [Example 53, (RS)-4-[(4-Acetylphenyl)amino]-N-[3-(methylsulfonyl)propyl]-6,7,8,9-tetrahydro-5H-pyrimido[4,5-b]indole-6-carboxamide] | 335 nM
COc1ccc(F)cc1Nc1ncnc2[nH]c3c(c12)CC(C(=O)O)CC3 (racemic) [Example 181, (RS)-4-[(5-Fluoro-2-methoxyphenyl)amino]-6,7,8,9-tetrahydro-5H-pyrimido[4,5-b]indole-6-carboxylic acid] | 1100 nM
O=C1OCCOc2cc(F)ccc2Nc2ncnc3[nH]c4c(c23)CC1CC4 (racemic) [Example 229, (RS)-11-Fluoro-1,3,4,7,8,14-hexahydro-5H-2,4-ethano-6,9-dioxa-1,14,15,17-tetraazabenzo[5,6]cyclotrideca[1,2,3-cd]inden-5-one] | 3540 nM
O=C(NC1CC1)C1CCc2[nH]c3ncnc(Nc4ccc5[nH]ncc5c4)c3c2C1 (racemic) [Example 15, (RS)—N—Cyclopropyl-4-(1H-indazol-5-ylamino)-6,7,8,9-tetrahydro-5H-pyrimido[4,5-b]indole-6-carboxamide] | 19 nM
COc1cc2[nH]ncc2cc1Nc1ncnc2[nH]c3c(c12)CC(C(=O)NCc1cccc(C(F)(F)F)c1)CC3 (racemic) [Example 220, (RS)-4-[(6-Methoxy-1H-indazol-5-yl)amino]-N-[3-(trifluoromethyl)benzyl]-6,7,8,9-tetrahydro-5H-pyrimido[4,5-b]indole-6-carboxamide] | 3 nM
COc1ccc(F)cc1Nc1ncnc2[nH]c3c(c12)CCCC3 [Example 108] | 126 nM
COc1ccc(Cl)cc1Nc1ncnc2[nH]c3c(c12)CC(C(=O)NC(C)C)CC3 (racemic) [Example 224, (RS)-4-[(5-Chloro-2-methoxyphenyl)amino]-N-(propan-2-yl)-6,7,8,9-tetrahydro-5H-pyrimido[4,5-b]indole-6-carboxamide] | 40 nM
O=C(NCc1cccc(C(F)(F)F)c1)C1CCc2[nH]c3ncnc(N4CCc5ccccc54)c3c2C1 (racemic) [Example 210, (RS)-4-(2,3-Dihydro-1H-indol-1-yl)-N-[3-(trifluoromethyl)benzyl]-6,7,8,9-tetrahydro-5H-pyrimido[4,5-b]indole-6-carboxamide] | ≥ 20000 nM
CS(=O)(=O)CCCNC(=O)C1CCc2[nH]c3ncnc(Nc4ccc5ncsc5c4)c3c2C1 (racemic) [Example 49, (RS)-4-(1,3-Benzothiazol-6-ylamino)-N-[3-(methylsulfonyl)propyl]-6,7,8,9-tetrahydro-5H-pyrimido[4,5-b]indole-6-carboxamide] | 231 nM
c1ccc(CN2CCc3[nH]c4ncnc(Nc5ccc6[nH]ncc6c5)c4c3C2)cc1 [Example 24, 6-Benzyl-N-(1H-indazol-5-yl)-6,7,8,9-tetrahydro-5H-pyrido[3′,4′:4,5]pyrrolo[2,3-d]pyrimidin-4-amine] | 367 nM
COc1cc2[nH]ncc2cc1Nc1ncnc2[nH]c3c(c12)CC(C(=O)NC(C)C)CC3 (racemic) [Example 216, (RS)-4-[(6-Methoxy-1H-indazol-5-yl)amino]-N-(propan-2-yl)-6,7,8,9-tetrahydro-5H-pyrimido[4,5-b]indole-6-carboxamide] | 5 nM
CCOC(=O)C1CCc2[nH]c3ncnc(Nc4cc(F)ccc4OC)c3c2C1 (racemic) [Example 171, (RS)-Ethyl 4-[(5-fluoro-2-methoxyphenyl)amino]-6,7,8,9-tetrahydro-5H-pyrimido[4,5-b]indole-6-carboxylate] | 6090 nM
CS(=O)(=O)CCCNC(=O)C1CCc2[nH]c3ncnc(Nc4ccccc4OC(F)(F)F)c3c2C1 (racemic) [Example 32, (RS)—N-[3-(Methylsulfonyl)propyl]-4-{[2-(trifluoromethoxy)phenyl]amino}-6,7,8,9-tetrahydro-5H-pyrimido[4,5-b]indole-6-carboxamide] | 746 nM
CNC(=O)C1CCc2[nH]c3ncnc(Nc4cc5cn[nH]c5cc4OC)c3c2C1 (racemic) [Example 217, (RS)-4-[(6-Methoxy-1H-indazol-5-yl)amino]-N-methyl-6,7,8,9-tetrahydro-5H-pyrimido[4,5-b]indole-6-carboxamide] | 10 nM
COc1ccc(F)cc1Nc1ncnc2[nH]c3c(c12)CC(C(=O)NCCCS(C)(=O)=O)CC3 (racemic) [Example 39, (RS)-4-[(5-Fluoro-2-methoxyphenyl)amino]-N-[3-(methylsulfonyl)propyl]-6,7,8,9-tetrahydro-5H-pyrimido[4,5-b]indole-6-carboxamide] | 59 nM

Source: patent US20150133426A1, “SUBSTITUTED PYRROLOPYRIMIDINES” (BAYER PHARMA AKTIENGESELLSCHAFT, priority 2012, published 2015)
